According to publication PMC4504005, “Structural Basis for Receptor Activity-Modifying Protein-Dependent Selective Peptide Recognition by a G Protein-Coupled Receptor” (Molecular cell, 2015):
Like-named read-outs stand apart in the source and are kept apart here. Ends that are not written are not given here.

Assays:
[1] = target: T1, MBP-RAMP2 ECD [L106R]-(GSA)3-CLR ECD-H6 (Homo sapiens, UniProt O60895+Q16602, L106R); assay: Competition AlphaScreen, AM1 receptor ECD complex [L106R]; type: binding; conditions: for binding of swap peptide: competition AlphaScreen, Figures 6H-6J
T1 construct: MBP-hRAMP2.55-140 [L106R]-(Gly-; Ser-Ala)3-hCLR.29-144-H6 proteins; made in house; host or cells: E. coli (co-expressed with DsbC)
Excerpt: (§1) Plasmid construction, mutagenesis, protein expression, purification, and the AlphaScreen peptide-binding assay were as previously described with minor modifications to the AlphaScreen assay ([Hill and Pioszak, 2013]; [Moad and Pioszak, 2013]). Synthetic peptides were from RS Synthesis, Bachem, or were synthesized in-house. Details are in Supplemental Experimental Procedures.
(§2) Supplemental Experimental Procedures
(§3) Plasmid construction and protein production and characterization. Bacterial pETDuet1 […]
(§4) numbers indicated) fusion proteins co-expressed with DsbC were constructed using the Gibson Assembly cloning method with Gibson Assembly master mix (New England […]
(§5) 2014). Site directed mutagenesis was performed with the QuikChange II kit (Agilent) or using the Gibson Assembly method. Primer sequences are available upon request. All constructs were verified by automated DNA sequencing.
(§6) The tethered ECD fusion proteins were expressed in E. coli, purified, and characterized for peptide binding with an AlphaScreen peptide binding assay as previously described (Moad and Pioszak, 2013), except that the AlphaScreen competition assays also included 0.3% (v/v) Triton X-100 in the reaction buffer. Triton X-100 […]
(§7) reactions in which the donor and acceptor beads were brought together by a Biotin-(Gly)6-(His)6 peptide. The binding experiments were conducted at least three times with each independent experiment performed with duplicate samples. pIC50 values are stated as the mean of the replicate independent experiments ± S.E.M. Although slight variation […]
(§8) Peptides. […]

[2] = target: T2, MBP-RAMP2 ECD-(GS)5-CLR ECD-H6 (WT RAMP2 ECD-CLR ECD fusion) (Homo sapiens, UniProt O60895+Q16602); assay: Competition AlphaScreen, WT RAMP2 ECD-CLR ECD fusion; type: binding; conditions: text (Fig S1C), approximate
T2 construct: MBP-hRAMP2.55-140-(Gly-Ser-Ala)3-hCLR.29-144-H6; made in house; host or cells: E. coli
Excerpt: as §1, §2, §3
(§9) numbers indicated) fusion proteins co-expressed with DsbC were constructed using the Gibson Assembly cloning method with Gibson Assembly master mix (New England Biolabs). Plasmids for expression of tagged full-length CLR and RAMP1 or -2 receptors in mammalian cells were previously described (Barwell et al., 2010; Watkins et al., 2014). Site directed mutagenesis was performed with the QuikChange II kit (Agilent) or using the Gibson Assembly method. Primer sequences are available upon request. All constructs were verified by automated DNA sequencing.
as §6

[3] = target: T3, MBP-RAMP1 ECD-(GSA)3-CLR ECD-H6 (Homo sapiens, UniProt O60894+Q16602); assay: Competition AlphaScreen, CGRP receptor ECD complex; type: binding; conditions: for binding of swap peptide: competition AlphaScreen, Figures 6E-6G, 100 nM protein, 100 nM biotin-CGRP
T3 construct: made in house; host or cells: E. coli (co-expressed with DsbC)
Excerpt: as §1, §2, §3, §4, §5, §6, §7, §8

[4] = test system: MBP-hRAMP1.24-111-(Gly-Ser-Ala)3-hCLR.29-144-H6; assay: Apparent aggregation in AlphaScreen competition assay, RAMP1-(GSA)3-CLR protein; type: physicochemical, human; conditions: reaction buffer with 0.3% (v/v) Triton X-100, which minimized but did not completely prevent it; data not shown
Excerpt: as §2, §3, §9, §6
Ser-Ala)3-hCLR.29-144-H6 proteins (data not shown).
CGRP analog prevented it from fully competing the binding signal to background levels […]
receptor crystallization construct are likely a bit higher than the true values. Competitor

[5] = Figure 6I, 100 nM protein, 100 nM biotin-AM, 0.3% Triton X-100, mean ± SEM, at least three independent experiments in duplicate, read-out: pIC50 (converted)
[6] = 100 nM protein, 100 nM biotin-AM

Molecule | IC50 [1, 5] | binding of swap peptide [3] | binding of swap peptide [1, 6] | other results
CC[C@H](C)[C@H](NC(=O)[C@H](CCC(N)=O)NC(=O)[C@H](Cc1c[nH]cn1)NC(=O)[C@H](C)NC(=O)[C@H](CC(C)C)NC(=O)[C@H](CCCCN)NC(=O)[C@H](CCC(N)=O)NC(=O)[C@@H](NC(=O)[C@@H](N)[C@@H](C)O)C(C)C)C(=O)N[C@@H](Cc1ccc(O)cc1)C(=O)N[C@@H](CCC(N)=O)C(=O)N[C@@H](Cc1ccccc1)C(=O)N[C@H](C(=O)N[C@@H](CC(=O)O)C(=O)N[C@@H](CCCCN)C(=O)N[C@@H](CC(=O)O)C(=O)N[C@@H](CCCCN)C(=O)N[C@@H](CC(=O)O)C(=O)N[C@@H](CC(N)=O)C(=O)N[C@H](C(=O)N[C@@H](C)C(=O)N1CCC[C@H]1C(=O)N[C@@H](CCCNC(=N)N)C(=O)N[C@@H](CO)C(=O)N[C@@H](CCCCN)C(=O)N[C@H](C(=O)N[C@@H](CO)C(=O)N1CCC[C@H]1C(=O)N[C@@H](CCC(N)=O)C(=O)NCC(=O)N[C@@H](Cc1ccc(O)cc1)C(N)=O)[C@@H](C)CC)C(C)C)[C@@H](C)O [AM(22-52)NH2] | 14.5 µM | – | – | IC50 ([1]; AlphaScreen competition, text (Figs S1C, S1H), approximate, read-out: IC50): 5 to 15 µM; IC50 ([1]; Figure 6H, 100 nM protein, 100 nM biotin-AM, 0.3% Triton X-100, mean ± SEM, at least three independent experiments in duplicate, read-out: pIC50 (converted)): 12 µM; IC50 [2]: 5 to 15 µM
CC(C)[C@H](NC(=O)[C@H](CC(=O)O)NC(=O)[C@@H](NC(=O)[C@@H]1CCCN1C(=O)[C@@H](NC(=O)[C@@H](N)Cc1ccccc1)C(C)C)[C@@H](C)O)C(=O)NCC(=O)N1CCC[C@H]1C(=O)N[C@@H](Cc1ccccc1)C(=O)N[C@@H](C)C(=O)N[C@@H](Cc1ccccc1)C(N)=O [CGRPmut] | – | – | – | IC50 [3]: 0.457 µM; apparent aggregation [4]: apparent aggregation
AM(37–52)NH2 [Y52F]: C-terminal residue swap of minimal ECD complex-binding AM peptide | – | did not gain increased affinity for the CGRP receptor ECD complex | exhibited significantly diminished binding to the AM1 receptor ECD complex | –
DKDNVAPRSKISPQGY-NH2 [AM(37–52)] | – | – | – | IC50 ([1]; Figure 6J, 100 nM protein, 100 nM biotin-AM, 0.3% Triton X-100, mean ± SEM, at least three independent experiments in duplicate, read-out: pIC50 (converted)): 10 µM
FVPTDVGPFAY-NH2 [CGRPmut [F37Y]] | 16.2 µM | retained CGRP receptor ECD complex binding | gained the ability to bind the AM1 receptor ECD complex as strongly as AM | –
